Publication PMC7352507, “The Genome Analysis of Methylobacterium populi YC-XJ1 with Diverse Xenobiotics Biodegrading Capacity and Degradation Characteristics of Related Hydrolase” (International Journal of Molecular Sciences, 2020)

What was measured:
[1] = tested on: T1, QPEH2; experiment: HPLC of residual substrate, Lineweaver-Burk; format: biochemical, Methylorubrum populi; conditions: 10 mM PBS pH 7.0, 25 °C; 120 µg enzyme; QPE 0.2-2.4 mM
T1 construct: full length, 367 aa, 39,840 Da, no signal peptide; pET-32a(+) BamHI/HindIII, fused tags (His/S stated; about 45 kDa on SDS-PAGE) kept; E. coli

[2] = tested on: T2, DEPH1; experiment: residual substrate (HPLC or GC), Lineweaver-Burk; format: biochemical, Methylorubrum populi; conditions: 10 mM PBS pH 7.0, 25 °C; 500 µg enzyme; DEP 0.2-2.4 mM
T2 construct: full length, 280 aa, 29,714 Da, no signal peptide; pET-32a(+) BamHI/HindIII, Trx/His/S tags kept (about 48 kDa on SDS-PAGE); E. coli

Structure (SMILES) | Km [1] | Km [2]
CCOC(=O)[C@@H](C)Oc1ccc(Oc2cnc3cc(Cl)ccc3n2)cc1 [quizalofop-p-ethyl] | 83.9 ± 30.3 µM | 
CCOC(=O)c1ccccc1C(=O)OCC [diethyl phthalate] |  | 1040 ± 270 µM
